In the supplement of paper PMC6315032:

What was measured:
Assay in all cases: apparent dissociation constant (pKDapp, Kinobeads competition, Cheng-Prusoff corrected) (-log10 M); higher = tighter binding
[1] = target: AKT2 (UniProt P31751); settings: affinity matrix / lysate: Kinobeads, mixed HEK293/K-562/placenta lysate
[2] = target: AXL (UniProt P30530); settings: affinity matrix / lysate: Kinobeads, mixed HEK293/K-562/placenta lysate
[3] = target: CAMKK1 (UniProt Q8N5S9); settings: affinity matrix / lysate: Kinobeads, mixed HEK293/K-562/placenta lysate
[4] = target: CDC42BPA (UniProt Q5VT25); settings: affinity matrix / lysate: Kinobeads, mixed HEK293/K-562/placenta lysate
[5] = target: CDK8 (UniProt P49336); settings: affinity matrix / lysate: Kinobeads, mixed HEK293/K-562/placenta lysate
[6] = target: CHEK2 (UniProt O96017); settings: affinity matrix / lysate: Kinobeads, mixed HEK293/K-562/placenta lysate
Sequence of CHEK2 (O96017 whole entry): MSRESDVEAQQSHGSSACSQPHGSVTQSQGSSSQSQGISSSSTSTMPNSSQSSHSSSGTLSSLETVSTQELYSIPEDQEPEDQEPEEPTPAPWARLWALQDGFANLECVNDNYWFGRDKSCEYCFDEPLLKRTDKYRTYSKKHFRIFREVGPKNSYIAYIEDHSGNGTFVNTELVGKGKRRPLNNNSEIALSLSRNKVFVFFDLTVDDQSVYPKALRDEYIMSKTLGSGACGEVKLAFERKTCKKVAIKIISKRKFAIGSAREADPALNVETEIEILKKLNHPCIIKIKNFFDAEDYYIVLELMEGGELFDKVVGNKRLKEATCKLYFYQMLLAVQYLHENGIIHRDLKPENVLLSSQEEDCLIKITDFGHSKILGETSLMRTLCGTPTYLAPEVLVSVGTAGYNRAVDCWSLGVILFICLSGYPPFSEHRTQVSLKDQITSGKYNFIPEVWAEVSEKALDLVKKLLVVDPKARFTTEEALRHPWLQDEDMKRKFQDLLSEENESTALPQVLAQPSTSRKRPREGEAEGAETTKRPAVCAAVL

[7] = target: CHUK (UniProt O15111); settings: affinity matrix / lysate: Kinobeads, mixed HEK293/K-562/placenta lysate
Sequence of CHUK (O15111 whole entry): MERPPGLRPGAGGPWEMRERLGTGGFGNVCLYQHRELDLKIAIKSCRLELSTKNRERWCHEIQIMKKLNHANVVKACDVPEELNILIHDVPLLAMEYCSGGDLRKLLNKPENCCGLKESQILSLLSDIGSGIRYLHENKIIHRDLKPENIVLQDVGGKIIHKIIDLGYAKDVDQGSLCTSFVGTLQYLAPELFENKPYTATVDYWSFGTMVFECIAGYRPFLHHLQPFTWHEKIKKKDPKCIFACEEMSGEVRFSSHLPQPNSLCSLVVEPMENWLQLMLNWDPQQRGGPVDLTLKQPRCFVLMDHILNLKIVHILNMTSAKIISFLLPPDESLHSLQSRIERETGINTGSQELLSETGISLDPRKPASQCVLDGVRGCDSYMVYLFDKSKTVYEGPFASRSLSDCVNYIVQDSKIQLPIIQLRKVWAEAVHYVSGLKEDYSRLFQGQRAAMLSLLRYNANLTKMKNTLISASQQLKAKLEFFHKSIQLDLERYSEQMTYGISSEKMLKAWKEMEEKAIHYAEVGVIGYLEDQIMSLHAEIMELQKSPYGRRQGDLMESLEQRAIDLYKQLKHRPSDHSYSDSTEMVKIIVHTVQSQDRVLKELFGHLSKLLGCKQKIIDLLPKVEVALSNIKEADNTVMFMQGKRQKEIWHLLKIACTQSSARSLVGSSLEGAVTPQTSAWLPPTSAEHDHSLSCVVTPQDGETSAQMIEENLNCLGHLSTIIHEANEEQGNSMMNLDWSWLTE

[8] = target: EPHA3 (UniProt P29320); settings: affinity matrix / lysate: Kinobeads, mixed HEK293/K-562/placenta lysate
[9] = target: FGFR2 (UniProt P21802); settings: affinity matrix / lysate: Kinobeads, mixed HEK293/K-562/placenta lysate
Sequence of FGFR2 (P21802 whole entry, looked up): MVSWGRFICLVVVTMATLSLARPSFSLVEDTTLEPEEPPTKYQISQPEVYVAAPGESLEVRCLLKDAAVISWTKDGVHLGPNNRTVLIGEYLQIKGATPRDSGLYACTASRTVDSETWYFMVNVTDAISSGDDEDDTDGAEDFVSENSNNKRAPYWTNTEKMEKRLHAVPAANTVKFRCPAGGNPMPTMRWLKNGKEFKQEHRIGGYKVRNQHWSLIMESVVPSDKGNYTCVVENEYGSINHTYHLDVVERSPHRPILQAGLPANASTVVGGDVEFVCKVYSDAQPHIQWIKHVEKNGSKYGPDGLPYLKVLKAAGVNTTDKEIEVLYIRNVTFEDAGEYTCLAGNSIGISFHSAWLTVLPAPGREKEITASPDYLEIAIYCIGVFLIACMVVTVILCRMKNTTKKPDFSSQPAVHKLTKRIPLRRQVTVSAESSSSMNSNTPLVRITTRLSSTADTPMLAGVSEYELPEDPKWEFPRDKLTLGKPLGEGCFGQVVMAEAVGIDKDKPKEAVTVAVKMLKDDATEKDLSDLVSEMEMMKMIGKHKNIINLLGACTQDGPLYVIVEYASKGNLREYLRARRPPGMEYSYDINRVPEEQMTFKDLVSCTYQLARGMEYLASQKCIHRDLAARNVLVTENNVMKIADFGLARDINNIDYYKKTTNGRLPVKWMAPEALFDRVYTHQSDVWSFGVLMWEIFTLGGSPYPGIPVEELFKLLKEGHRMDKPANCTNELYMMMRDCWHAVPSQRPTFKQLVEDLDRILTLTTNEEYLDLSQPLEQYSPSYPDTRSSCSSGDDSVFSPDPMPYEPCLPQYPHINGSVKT

[10] = target: GAK (UniProt O14976); settings: affinity matrix / lysate: Kinobeads, mixed HEK293/K-562/placenta lysate
[11] = target: IRAK3 (UniProt Q9Y616); settings: affinity matrix / lysate: Kinobeads, mixed HEK293/K-562/placenta lysate
[12] = target: ITK (UniProt Q08881); settings: affinity matrix / lysate: Kinobeads, mixed HEK293/K-562/placenta lysate
[13] = target: KIAA0999 (UniProt Q9Y2K2); settings: affinity matrix / lysate: Kinobeads, mixed HEK293/K-562/placenta lysate
[14] = target: KSR1 (UniProt Q8IVT5); settings: affinity matrix / lysate: Kinobeads, mixed HEK293/K-562/placenta lysate
[15] = target: MAP4K3 (UniProt Q8IVH8); settings: affinity matrix / lysate: Kinobeads, mixed HEK293/K-562/placenta lysate
[16] = target: MAPK1 (UniProt P28482); settings: affinity matrix / lysate: Kinobeads, mixed HEK293/K-562/placenta lysate
[17] = target: MAPKAPK5 (UniProt Q8IW41); settings: affinity matrix / lysate: Kinobeads, mixed HEK293/K-562/placenta lysate
Sequence of MAPKAPK5 (Q8IW41 whole entry): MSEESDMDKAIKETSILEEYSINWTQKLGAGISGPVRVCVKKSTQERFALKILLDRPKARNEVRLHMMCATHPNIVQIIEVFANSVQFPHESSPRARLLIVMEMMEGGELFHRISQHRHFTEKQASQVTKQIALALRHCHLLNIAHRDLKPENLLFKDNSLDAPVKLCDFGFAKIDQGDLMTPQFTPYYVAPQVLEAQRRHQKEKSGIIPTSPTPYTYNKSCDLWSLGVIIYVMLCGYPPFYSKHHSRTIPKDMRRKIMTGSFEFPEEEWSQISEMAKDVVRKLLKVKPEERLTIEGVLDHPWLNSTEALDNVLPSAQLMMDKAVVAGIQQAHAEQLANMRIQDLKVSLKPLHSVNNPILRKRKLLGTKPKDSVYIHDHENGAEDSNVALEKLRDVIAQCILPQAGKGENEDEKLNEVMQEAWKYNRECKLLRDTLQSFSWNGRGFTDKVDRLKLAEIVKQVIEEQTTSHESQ

[18] = target: MKNK2 (UniProt Q9HBH9); settings: affinity matrix / lysate: Kinobeads, mixed HEK293/K-562/placenta lysate
[19] = target: NEK7 (UniProt Q8TDX7); settings: affinity matrix / lysate: Kinobeads, mixed HEK293/K-562/placenta lysate
Sequence of NEK7 (Q8TDX7 whole entry, looked up): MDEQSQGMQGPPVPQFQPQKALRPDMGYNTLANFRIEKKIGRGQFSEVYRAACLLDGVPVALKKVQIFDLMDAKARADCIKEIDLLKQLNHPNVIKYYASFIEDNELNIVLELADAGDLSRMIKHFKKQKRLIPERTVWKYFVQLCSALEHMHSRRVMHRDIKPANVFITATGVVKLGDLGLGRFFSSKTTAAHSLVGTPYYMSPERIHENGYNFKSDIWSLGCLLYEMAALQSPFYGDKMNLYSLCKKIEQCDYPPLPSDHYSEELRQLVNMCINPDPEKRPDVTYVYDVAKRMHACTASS

[20] = target: NEK9 (UniProt Q8TD19); settings: affinity matrix / lysate: Kinobeads, mixed HEK293/K-562/placenta lysate
[21] = target: PFTK1 (UniProt O94921); settings: affinity matrix / lysate: Kinobeads, mixed HEK293/K-562/placenta lysate
[22] = target: PI4KA (UniProt P42356)
Sequence of PI4KA (P42356 whole entry, looked up): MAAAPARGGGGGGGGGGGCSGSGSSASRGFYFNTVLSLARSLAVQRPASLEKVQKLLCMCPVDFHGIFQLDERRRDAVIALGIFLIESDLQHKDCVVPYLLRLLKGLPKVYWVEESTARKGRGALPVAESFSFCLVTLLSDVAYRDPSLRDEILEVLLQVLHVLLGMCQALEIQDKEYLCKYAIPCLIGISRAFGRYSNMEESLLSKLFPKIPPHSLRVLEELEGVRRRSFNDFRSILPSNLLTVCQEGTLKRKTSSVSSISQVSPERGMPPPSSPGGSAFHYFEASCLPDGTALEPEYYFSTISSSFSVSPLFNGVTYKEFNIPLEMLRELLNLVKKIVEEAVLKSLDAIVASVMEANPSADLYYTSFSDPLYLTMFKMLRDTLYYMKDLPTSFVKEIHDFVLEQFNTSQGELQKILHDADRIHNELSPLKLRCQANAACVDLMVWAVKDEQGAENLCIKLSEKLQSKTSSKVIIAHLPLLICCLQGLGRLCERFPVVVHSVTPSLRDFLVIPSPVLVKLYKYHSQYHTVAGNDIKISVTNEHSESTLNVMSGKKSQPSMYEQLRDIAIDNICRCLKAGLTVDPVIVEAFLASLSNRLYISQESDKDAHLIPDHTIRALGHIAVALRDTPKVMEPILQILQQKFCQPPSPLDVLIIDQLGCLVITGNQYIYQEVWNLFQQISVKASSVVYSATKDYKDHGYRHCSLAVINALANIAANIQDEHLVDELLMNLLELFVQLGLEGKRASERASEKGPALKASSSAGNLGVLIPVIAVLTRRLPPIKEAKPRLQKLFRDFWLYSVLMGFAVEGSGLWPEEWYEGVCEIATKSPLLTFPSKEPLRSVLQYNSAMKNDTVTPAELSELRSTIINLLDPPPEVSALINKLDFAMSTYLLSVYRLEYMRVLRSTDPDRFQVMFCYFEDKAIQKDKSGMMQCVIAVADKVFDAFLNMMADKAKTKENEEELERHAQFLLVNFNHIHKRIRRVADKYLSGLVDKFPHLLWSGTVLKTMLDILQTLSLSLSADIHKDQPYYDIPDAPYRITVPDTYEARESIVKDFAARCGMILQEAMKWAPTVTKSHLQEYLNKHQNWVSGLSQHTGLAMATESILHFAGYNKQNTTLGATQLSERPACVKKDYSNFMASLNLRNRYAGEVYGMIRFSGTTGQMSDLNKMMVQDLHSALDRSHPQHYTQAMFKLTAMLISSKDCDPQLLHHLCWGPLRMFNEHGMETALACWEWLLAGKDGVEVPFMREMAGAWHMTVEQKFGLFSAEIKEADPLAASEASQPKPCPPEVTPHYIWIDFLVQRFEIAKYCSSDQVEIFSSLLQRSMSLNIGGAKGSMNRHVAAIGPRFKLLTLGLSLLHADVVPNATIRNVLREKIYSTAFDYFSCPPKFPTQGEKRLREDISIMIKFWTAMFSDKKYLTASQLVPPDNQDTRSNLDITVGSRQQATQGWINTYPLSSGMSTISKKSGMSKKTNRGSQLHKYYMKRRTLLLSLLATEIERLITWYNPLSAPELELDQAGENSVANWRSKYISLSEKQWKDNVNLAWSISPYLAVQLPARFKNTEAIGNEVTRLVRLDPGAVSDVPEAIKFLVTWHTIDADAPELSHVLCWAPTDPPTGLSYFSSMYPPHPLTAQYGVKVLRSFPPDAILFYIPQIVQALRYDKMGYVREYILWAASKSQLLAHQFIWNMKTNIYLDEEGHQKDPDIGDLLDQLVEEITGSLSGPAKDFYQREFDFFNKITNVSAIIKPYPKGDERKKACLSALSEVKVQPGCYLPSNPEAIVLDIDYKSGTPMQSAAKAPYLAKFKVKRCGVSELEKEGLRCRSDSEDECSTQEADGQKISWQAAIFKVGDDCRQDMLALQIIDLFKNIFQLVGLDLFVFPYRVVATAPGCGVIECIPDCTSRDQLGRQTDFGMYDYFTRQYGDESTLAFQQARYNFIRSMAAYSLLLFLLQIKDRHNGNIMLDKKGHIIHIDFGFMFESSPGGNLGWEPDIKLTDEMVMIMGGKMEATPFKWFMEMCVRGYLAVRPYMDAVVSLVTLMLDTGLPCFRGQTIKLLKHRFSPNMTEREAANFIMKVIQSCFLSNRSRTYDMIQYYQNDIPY

[23] = target: PIK3CB (UniProt P42338); settings: affinity matrix / lysate: Lipid Kinobeads, mixed HeLa/Jurkat/K-562 lysate
[24] = target: PIP4K2C (UniProt Q8TBX8); settings: affinity matrix / lysate: Kinobeads, mixed HEK293/K-562/placenta lysate
[25] = target: PKN1 (UniProt Q16512); settings: affinity matrix / lysate: Kinobeads, mixed HEK293/K-562/placenta lysate
[26] = target: PRKCB (UniProt P05771); settings: affinity matrix / lysate: Kinobeads, mixed HEK293/K-562/placenta lysate
[27] = target: PRKCD (UniProt Q05655); settings: affinity matrix / lysate: Kinobeads, mixed HEK293/K-562/placenta lysate
[28] = target: RIPK2 (UniProt O43353); settings: affinity matrix / lysate: Kinobeads, mixed HEK293/K-562/placenta lysate
[29] = target: RPS6KA3 (UniProt P51812); settings: affinity matrix / lysate: Kinobeads, mixed HEK293/K-562/placenta lysate
[30] = target: STK10 (UniProt O94804); settings: affinity matrix / lysate: Kinobeads, mixed HEK293/K-562/placenta lysate
[31] = target: STK38 (UniProt Q15208); settings: affinity matrix / lysate: Kinobeads, mixed HEK293/K-562/placenta lysate
[32] = target: TAOK3 (UniProt Q9H2K8); settings: affinity matrix / lysate: Kinobeads, mixed HEK293/K-562/placenta lysate
[33] = target: TGFBR2 (UniProt P37173); settings: affinity matrix / lysate: Kinobeads, mixed HEK293/K-562/placenta lysate
[34] = affinity matrix / lysate: Lipid Kinobeads, mixed HeLa/Jurkat/K-562 lysate

apparent dissociation constant (-log10 M) [1]	apparent dissociation constant (-log10 M) [2]	apparent dissociation constant (-log10 M) [3]	apparent dissociation constant (-log10 M) [4]	apparent dissociation constant (-log10 M) [5]	apparent dissociation constant (-log10 M) [6]	apparent dissociation constant (-log10 M) [7]	apparent dissociation constant (-log10 M) [8]	apparent dissociation constant (-log10 M) [9]	apparent dissociation constant (-log10 M) [10]	apparent dissociation constant (-log10 M) [11]	apparent dissociation constant (-log10 M) [12]	apparent dissociation constant (-log10 M) [13]	apparent dissociation constant (-log10 M) [14]	apparent dissociation constant (-log10 M) [15]	apparent dissociation constant (-log10 M) [16]	apparent dissociation constant (-log10 M) [17]	apparent dissociation constant (-log10 M) [18]	apparent dissociation constant (-log10 M) [19]	apparent dissociation constant (-log10 M) [21]	apparent dissociation constant (-log10 M) [22, 34]	apparent dissociation constant (-log10 M) [23]	apparent dissociation constant (-log10 M) [24]	apparent dissociation constant (-log10 M) [25]	apparent dissociation constant (-log10 M) [26]	apparent dissociation constant (-log10 M) [27]	apparent dissociation constant (-log10 M) [28]	apparent dissociation constant (-log10 M) [29]	apparent dissociation constant (-log10 M) [30]	apparent dissociation constant (-log10 M) [31]	apparent dissociation constant (-log10 M) [32]	apparent dissociation constant (-log10 M) [33]	apparent dissociation constant (-log10 M) ([22]; affinity matrix / lysate: Kinobeads, mixed HEK293/K-562/placenta lysate)	Structure (SMILES)	apparent dissociation constant (-log10 M) [20]
< 6	< 6	< 6	< 6	< 6	< 6	< 6	< 6	< 6	< 6	< 6	< 6	< 6	< 6	< 6	< 6	< 6	< 6	< 6	< 6	< 6	< 6	< 6	< 6	< 6	< 6	< 6	< 6	< 6	< 6	< 6	< 6	–	CCNC(=O)Nc1ccc(-c2nc(N3CCOC[C@@H]3C)c3c(n2)C(C)(C)S(=O)(=O)C3)cc1 [CZ415]	< 6
< 6	< 6	< 6	< 6	< 6	< 6	< 6	< 6	< 6	< 6	< 6	< 6	< 6	< 6	< 6	< 6	< 6	< 6	< 6	< 6	< 6	< 6	< 6	< 6	< 6	< 6	< 6	< 6	< 6	< 6	< 6	< 6	< 6	COc1ccc(-c2ccc3c(N4CCOC[C@@H]4C)nc(N4CCOC[C@@H]4C)nc3n2)cc1CO [AZD8055]	< 6
